In patent US20250230193A1, “CYCLIC COMPOUND HAVING SELECTIVE KRAS INHIBITORY EFFECT ON HRAS AND NRAS” (CHUGAI SEIYAKU KABUSHIKI KAISHA, priority 2022, published 2025):
Like-named read-outs stand apart in the source and are kept apart here.

Experiments:
[1] = biological target: GDP-bound NRAS wild-type protein (Homo sapiens, UniProt P01111); assay: Binding to NRAS by surface plasmon resonance (SPR), Single Cycle Kinetics; conditions: SPR; for NRAS/KRAS (ratio of KD value for GDP-bound NRAS wild-type protein to KD value for KRAS): KD ratio class
Chain of GDP-bound NRAS wild-type protein (P01111 whole entry): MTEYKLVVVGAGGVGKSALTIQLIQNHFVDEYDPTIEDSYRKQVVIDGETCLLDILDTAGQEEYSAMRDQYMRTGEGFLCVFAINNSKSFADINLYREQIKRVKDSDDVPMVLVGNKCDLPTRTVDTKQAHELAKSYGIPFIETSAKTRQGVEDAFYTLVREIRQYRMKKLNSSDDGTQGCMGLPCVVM

[2] = biological target: GDP-bound HRAS wild-type protein (Homo sapiens, UniProt P01112); assay: Binding to HRAS by surface plasmon resonance (SPR), Single Cycle Kinetics; conditions: SPR; for HRAS/KRAS (ratio of KD value for GDP-bound HRAS wild-type protein to KD value for KRAS): KD ratio class
Chain of GDP-bound HRAS wild-type protein (P01112 whole entry): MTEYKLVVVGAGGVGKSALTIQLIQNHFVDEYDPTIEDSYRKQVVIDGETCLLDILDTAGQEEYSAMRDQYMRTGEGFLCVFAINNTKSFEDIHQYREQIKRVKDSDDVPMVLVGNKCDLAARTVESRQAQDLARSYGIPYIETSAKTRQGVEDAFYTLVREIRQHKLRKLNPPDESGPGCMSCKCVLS

[3] = test system: human lung cancer strain NCI-H441
[4] = biological target: GDP-bound KRAS wild-type protein (Homo sapiens, UniProt P01116); assay: Binding to KRAS by surface plasmon resonance (SPR), Single Cycle Kinetics; conditions: GDP-bound KRAS wild-type protein
[5] = read-out: NCI-H441 IC50, NCI-H441 cells, 4 days, CellTiter-Glo

SMILES | NRAS/KRAS (ratio of KD value for GDP-bound NRAS wild-type protein to KD value for KRAS) [1] | HRAS/KRAS (ratio of KD value for GDP-bound HRAS wild-type protein to KD value for KRAS) [2] | IC50 [3, 5] [nM] | Kd ([4]; SPR, Single Cycle Kinetics) [nM] | NRAS/KRAS (ratio of KD value with respect to GDP-bound NRAS wild-type protein to KD value with respect to KRAS) ([1]; KD ratio NRAS/KRAS) | HRAS/KRAS (ratio of KD value with respect to GDP-bound HRAS wild-type protein to KD value with respect to KRAS) ([2]; KD ratio HRAS/KRAS) | IC50 [3] [nM] | Kd ([4]; SPR Single Cycle Kinetics, 1:1 binding model) [nM]
CC[C@H](C)[C@@H]1NC(=O)[C@H](CC2CC2)N(C)C(=O)C[C@@H](C(=O)N2CCCC2)N(C)C(=O)[C@H](C2CCCC2)N(C)C(=O)C2(CCC2)NC(=O)[C@@H]2C[C@H](C)CN2C(=O)[C@H](CCc2cc(F)c(C(F)(F)F)c(F)c2)NC(=O)CN(C)C(=O)[C@H](Cc2ccc(C(F)(F)F)cc2)N2CC/C=C\C[C@@H](C2=O)N(C)C(=O)CN(C)C1=O [PP1510] | AA (a compound having 20 or more is denoted as AA) | A (a compound having 10 or more and less than 20 is denoted as A) | 34.5 | 0.11 |  |  |  | 
CCO[C@@H]1C[C@H]2C(=O)NC3(CCC3)C(=O)N(C)[C@@H](C3CCCC3)C(=O)N(C)[C@H](C(=O)N3CCCC3)CC(=O)N(C)[C@@H](CC3CC3)C(=O)N[C@@H]([C@@H](C)CC)C(=O)N(C)CC(=O)N(C)[C@H]3C/C=C\CCN(C3=O)[C@@H](Cc3ccc(C(F)(F)F)cc3)C(=O)N(C)CC(=O)N[C@@H](CCc3cc(F)c(C(F)(F)F)c(F)c3)C(=O)N2C1 [PP1296] | AA (a compound having 20 or more is denoted as AA) | A (a compound having 10 or more and less than 20 is denoted as A) | 14.7 | 0.12 |  |  |  | 
CC[C@H](C)C1NC(=O)[C@H](CC(C)C)N(C)C(=O)C[C@@H](C(=O)N(C)C)N(C)C(=O)[C@H](C2CCCC2)N(C)C(=O)C2(CCCC2)NC(=O)C2CCCN2C(=O)[C@@H](CCc2ccc(C(F)(F)F)c(Cl)c2)NC(=O)CN(C)C(=O)[C@@H](Cc2ccc(C(F)(F)F)cc2)N2CC/C=C\CCN(CC2=O)C(=O)CN(C)C1=O (stereo partly drawn) [PP0619] |  |  |  |  | C (A compound having a KD ratio of 0.1 or more and less than 3 is denoted as C) | C (A compound having a KD ratio of 0.1 or more and less than 3 is denoted as C) | 70.7 | 3.7
CC[C@H](C)[C@@H]1NC(=O)[C@H](CC2CC2)N(C)C(=O)C[C@@H](C(=O)N(C)C)N(C)C(=O)[C@H](C2CCCC2)N(C)C(=O)C2(CCC2)NC(=O)[C@@H]2C[C@@H](C(F)(F)F)CN2C(=O)[C@H](CCc2cc(F)c(C(F)(F)F)c(F)c2)NC(=O)CN(C)C(=O)[C@H](Cc2ccc(C(F)(F)F)cc2)N2CC/C=C\C[C@@H](C2=O)N(C)C(=O)CN(C)C1=O [PP1498] | A (a compound having 10 or more and less than 20 is denoted as A) | A (a compound having 10 or more and less than 20 is denoted as A) | 10.3 | 0.069 |  |  |  | 
CCO[C@@H]1C[C@H]2C(=O)NC3(CC(F)(F)C3)C(=O)N(C)[C@@H](C3CCCC3)C(=O)N(C)C(C(C)C)CC(=O)N(C)[C@@H](CC3CC3)C(=O)N[C@@H]([C@@H](C)CC)C(=O)N(C)CC(=O)N(C)[C@H]3C/C=C\CCN(C3=O)[C@@H](Cc3ccc(C(F)(F)F)cc3)C(=O)N(C)CC(=O)N[C@@H](CCc3cc(F)c(C(F)(F)F)c(F)c3)C(=O)N2C1 (stereo partly drawn) [PP1598] | A (a compound having 10 or more and less than 20 is denoted as A) | A (a compound having 10 or more and less than 20 is denoted as A) | 36.6 | 0.76 |  |  |  | 
C=CC[C@H]1C(=O)N[C@@H]([C@@H](C)CC)C(=O)N(C)CC(=O)N(C)[C@H]2C/C=C\CCN(C2=O)[C@@H](CC2CCC(F)(F)CC2)C(=O)N(C)CC(=O)N[C@@H](CCc2cc(F)c(C(F)(F)F)c(F)c2)C(=O)N2C[C@H](OCC)C[C@H]2C(=O)NC2(CCC2)C(=O)N(C)[C@@H](C2CCCC2)C(=O)N(C)[C@H](C(=O)N(C)C)CC(=O)N1C [PP1454] | A (a compound having 10 or more and less than 20 is denoted as A) | A (a compound having 10 or more and less than 20 is denoted as A) | 15.2 | 0.096 |  |  |  | 
